Tested on: Chlorella cells
Test: Test of reproductive ability using chlorella cells
Type: cell-based
Conditions: relative number of chlorella cells after 14 days, non-treated area = 100
Description: Chlorella cells which were green cells of a […] were cultured with vibration in an inorganic salt medium. […] The concentration of the cells was set to 1.00×10^5 (cells per ml) at the start of the test. […] As the inorganic salt medium, a Linsmaier-Skoog (LS) medium was used. Three media were used as the treated areas and the non-treated areas every the plant-activating agent or the plant-activating composition. The average thereof was compared with that in the non-treated areas.

[1] = Table 1, LS medium, concentration (ppm) as in table

| Compound | reproductive ability (Table A1) | reproductive ability [1] | reproductive ability (Table B1) |
| --- | --- | --- | --- |
| CCCCCCCCCCCCCCCCCCCCCCCCCCCCCC(=O)O [Inventive product A1-7, Melissic acid] | 138 |  |  |
| Citric acid C18 monoester potassium salt [Inventive product 1-3] |  | 138 |  |
| Citric acid C18 monoester [Inventive product 1-1] |  | 142 |  |
| Hexaglycerol ester of stearic acid [Inventive product B1-8] |  |  | 123 |
| Citric acid C14 monoamide [Inventive product 1-6] |  | 136 |  |
| CCCCCCCCCCCCCCCCNC(=O)C(O)CO (stereo not drawn) [Inventive product B1-7, Glyceric acid cetyl amide] |  |  | 120 |
| OCC(O)CO [Comparative product B1-1, Glycerol, reference compound] |  |  | 98 |
| CCCCCCCC/C=C\CCCCCCCC(=O)O [Inventive product A1-5, Oleic acid] | 148 |  |  |
| CC(O)C(=O)O (stereo not drawn) [Comparative product 1-1, Lactic acid, reference compound] |  | 99 |  |
| CCCCCCCCCCCCCCCCCCOC(=O)C(O)CO (stereo not drawn) [Inventive product B1-6, Glyceric acid stearyl ester] |  |  | 122 |
| CC(=O)O [Comparative product A1-1, Acetic acid, reference compound] | 90 |  |  |
| CC(O)C(=O)O (stereo not drawn) [Comparative product A1-4, Lactic acid, reference compound] | 93 |  |  |
| CCCCCCCCCCCCCCCCCCOCC(O)CO (stereo not drawn) [Inventive product B1-4, Batyl alcohol] |  |  | 130 |
| CCCCCCCCCCCCCC(=O)O [Inventive product A1-1, Myristic acid (LUNAC MY-98)] | 127 |  |  |
| Citric acid C18 diester [Inventive product 1-7] |  | 138 |  |
| Citric acid C12 monoamide [Inventive product 1-8] |  | 128 |  |
| Stearic acid monoglyceride [Inventive product B1-3] |  |  | 132 |
| CCC(=O)O [Comparative product A1-3, Propionic acid, reference compound] | 94 |  |  |
| CCCCCCCCCCCCCCCCCCCCCC(=O)O [Inventive product A1-6, Behenic acid (LUNAC BA)] | 150 |  |  |
| Citric acid C18 monoamide [Inventive product 1-5] |  | 139 |  |
| O=C1OCC(CO)O1 (stereo not drawn) [Inventive product B1-9, Glycerol carbonate] |  |  | 126 |

Source: patent US7829500B2, “Plant-activating agent” (Kao Corporation, priority 2000, dated 2010)
